The text below walks through data of publication PMC11648822, “Lactam Truncation Yields a Dihydroquinazolinone Scaffold with Potent Antimalarial Activity that Targets PfATP4” (Chemmedchem, 2024).

Data set [1] concerns P. falciparum (Pf) 3D7 parasites. The data set can be described thus: P. falciparum LDH viability assay. It is filed as cell-based. To be noted: Plasmodium falciparum, 3D7, 72 h, LDH activity at 72 h; mean and SD of 3 independent experiments. The text has this:
This assay is a platform assay conducted at the Walter and Eliza Hall Institute and uses a protocol previously decsribed.[30, 31]

Data set [2] relates to P. falciparum Dd2 PfATP4^F156L strain. The data set can be described thus: 'compound 49' resistant parasite viability assay (LDH), Dd2 F156L. It counts as cell-based. To be noted: Plasmodium falciparum, DD2, 72 h, read-out: Dd2^F156L EC50 (SD). The procedure: (§1) These assays were performed according to a previously described protocol.[16] Briefly, P. falciparum Dd2 strains treated with compound were incubated for 72 h at 37 °C. After incubating for 72 h, plates were frozen at −80 °C and then thawed at room temperature for at least 2 h. LDH activity, a surrogate for parasite growth was measured by the addition of the Malstst reagent mix, followed by incubation for 30 min and absorbance read using a ClarioStar Microplate reader at 650 nm. Values were normalized to DMSO control as a percentage and EC50 and dose response curves generated using GraphPad Prism.

The subject of data set [3] is P. falciparum Dd2 parental strain. Briefly: PfATP4 drug resistant parasite viability assay (LDH), Dd2 parental. It counts as cell-based. To be noted: Plasmodium falciparum, DD2, 72 h, read-out: Dd2^parental EC50 (SD). The procedure: as §1
For data set [4], the system named is P. falciparum Dd2 strain with 2.8-fold amplification in PfATP4. Briefly: 'compound 49' resistant parasite viability assay (LDH), Dd2 2.8 CNV. It is filed as cell-based. As to conditions: Plasmodium falciparum, DD2, 72 h, read-out: Dd2^2.8 CNV EC50 (SD). As for the experimental part: as §1
For the next data set, the system named is P. falciparum Dd2. Briefly: P. falciparum viability assay (SYBR green), Dd2. To be noted: Plasmodium falciparum, DD2, 72 h, read-out: P. falciparum parental EC50 (SD) Dd2. It counts as cell-based. The procedure: (§2) These assays were performed as previously described.[16] P. falciparum 3D7 parasites and resistant lines Dd2, W2mef, 7G8, and artemisinin‐resistant Cambodian isolate (Cam3.I (2539T)), and P. knowlesi YH1, were cultured in human O^+ erythrocytes (RBCs) (Australian Red Cross Blood Service), in RPMI‐HEPES culture medium (pH 7.4, 50 μg/mL hypoxanthine, 25 mM NaHCO3, 20 μg/mL gentamicin, 0.5 % Albumax II (GibcoBRL)) (Thermo Fisher Scientific) and maintained in an atmosphere of 1 % O2, 4 % CO2 and 95 % N2. Parasites were synchronised with 5 % (w/v) sorbitol (Sigma‐Aldrich) treatments for ring stages. Growth assays for measuring drug inhibition of in‐cycle, ring to schizont stage parasites have been described previously. Parasites were grown in 1 % haematocrit, at 1 % and 2 % parasitaemia for P. falciparum and P. knowlesi respectively. […] Parasitaemia was measured using a SYBR DNA staining assay on a fluorometer.[33] After the incubation period, supernatants were removed and well contents were resuspended in PBS.

The test system of data set [5] is P. falciparum 3D7 parasites. The data set can be described thus: P. falciparum viability assay (SYBR green), 3D7. It is filed as cell-based. To be noted: Plasmodium falciparum, 3D7; SYBR green, 72 h; read-out: P. falciparum parental EC50 (SD) 3D7. The procedure: (§3) These assays were performed as previously described.[16] […] Parasites were synchronised with 5 % (w/v) sorbitol (Sigma‐Aldrich) treatments for ring stages. […] Parasites were grown in 1 % haematocrit, at 1 % and 2 % parasitaemia for P. falciparum and P. knowlesi respectively. […] Parasitaemia was measured using a SYBR DNA staining assay on a fluorometer.[33] After the incubation period, supernatants were removed and well contents were resuspended in PBS.

The test system of a further data set is P. falciparum CAM3.1. Briefly: Multidrug-resistant parasite viability assay (SYBR green), CAM3.1. As to conditions: Plasmodium falciparum, 72 h, read-out: multidrug resistant P. falciparum strains EC50 (SD) CAM3.1. It is filed as cell-based. The procedure: as §2
Data set [6] relates to P. falciparum Dd2 PfATP4^D425E strain. The data set can be described thus: 'compound 49' resistant parasite viability assay (LDH), Dd2 D425E. It counts as cell-based. As to conditions: Plasmodium falciparum, DD2, 72 h, read-out: Dd2^D425E EC50 (SD). As for the experimental part:
as §1

The subject of data set [7] is P. falciparum Dd2 PfATP4^G358S strain. Briefly: PfATP4 drug resistant parasite viability assay (LDH), Dd2 G358S. It is filed as cell-based. To be noted: Plasmodium falciparum, DD2, 72 h, read-out: Dd2^G358S EC50 (SD). The procedure: as §1
Another data set concerns P. falciparum 7G8. The data set can be described thus: Multidrug-resistant parasite viability assay (SYBR green), 7G8. It is filed as cell-based. As to conditions: Plasmodium falciparum, 7G8, 72 h, read-out: multidrug resistant P. falciparum strains EC50 (SD) 7G8. As for the experimental part: as §2
The nature of data set [8]: Human HepG2 cytotoxicity assay (Cell Titre Glo). It is filed as cell-based. To be noted: HepG2 cells, growth inhibition at 48 h, 4 replicate experiments, read-out: HepG2 CC50 (SD). From the text: This assay uses Cell TitreGlo as a metabolic maker for human HepG2 cell growth and uses a protocol previously described.[32]
The test system of data set [9] is P. falciparum Dd2 PfATP4^triple (I398F, P990R, D1247Y) strain. Briefly: PfATP4 drug resistant parasite viability assay (LDH), Dd2 triple. It is filed as cell-based. As to conditions: Plasmodium falciparum, DD2, 72 h, read-out: Dd2^triple EC50 (SD). As for the experimental part:
as §1

The test system of a further data set is P. falciparum W2^mef. The data set can be described thus: Multidrug-resistant parasite viability assay (SYBR green), W2mef. It is filed as cell-based. To be noted: Plasmodium falciparum, W2, 72 h, read-out: multidrug resistant P. falciparum strains EC50 (SD) W2^mef. The procedure:
as §2

The test system of data set [10] is P. knowlesi YH1 parasites. Briefly: P. knowlesi viability assay (SYBR green). It counts as cell-based. To be noted: Plasmodium knowlesi, 48 h, read-out: P. knowlesi EC50 (SD) YH1. As for the experimental part:
as §3

Data set [11] concerns P. falciparum Dd2 PfATP4^triple (I398F, P990R, D1247Y) strain. The arrangement: method as in Ashton, Dans et al. 10. As to conditions: ref Ashton, Dans et al. 10; cited from earlier work.
Data set [12] has as its system P. falciparum (Pf) 3D7 parasites. Also noted: method as in PMID 36812492, PMID 39134060. To be noted: Figure 1; cited from earlier work.
On the set-up of data set [13]: method as in PMID 39134060. As to conditions: 25 mg/kg oral dose, 4-day model; recrudescence detected after day 4; cited from earlier work.
The conditions of data set [14]: Figure 1; cited from earlier work.
Data set [15] has as its system P. falciparum Dd2 PfATP4^G358S strain. Also noted: method as in Ashton, Dans et al. 10. To be noted: ref Ashton, Dans et al. 10; cited from earlier work.
The test system of data set [16] is P. falciparum Dd2 parental strain. The arrangement: method as in Ashton, Dans et al. 10. As to conditions: LDH at 72 h; ref Ashton, Dans et al. 10; cited from earlier work.
A further data set has as its system P. berghei ANKA. Briefly: P. berghei 4-day mouse model. It is filed as in vivo. To be noted: 30 mg/kg p.o. q.d. The procedure:
In this model, mice are infected with P. berghei ANKA asexual blood stage parasites. Compounds are then administered by oral gavage at 20 mg/kg 2, 24, 48, and 72 hours after the parasite infection.
Each day, a fresh aliquot of the compound stock was diluted 1/10 in water for administration to mice. 8 week old female mice (Ozgene) on day 0 were infected with 2×10^7 P. berghei ANKA‐infected erythrocytes. […] 2 mice were also dosed with artesunate using the same regime at 30 mg/kg. The parasitemia of mice was assessed by visualizing Giemsa‐stained thin blood smears by microscopy and a minimum of 1000 RBCs were counted. To calculate the percent antimalarial activity the following formula was used: 100 ‐ (mean parasitemia treated day 4 post‐infection/mean parasitemia vehicle control day 4 post‐infection)×100. Mice were culled the day following the last oral gavage.
Briefly, ‘donor’ female Swiss mice were infected intraperitoneally (IP) with blood stage P. berghei parasites constitutively expressing GFP (P. berghei ANKA GFPcon 259cl2).[36] Three days later, groups of 3 ‘acceptor’ Swiss mice were infected intravenously with 1 x 10^7 parasitised red blood cells from the ‘donor mice’. […] Control mice were left untreated. Peripheral blood samples were taken 24 h after administration of the last dose, and parasitemia was measured by flow cytometry (proportion of GFP‐positive cells in 100,000 recorded events using Attune Nxt, ThermoFisher) and microscopic analysis of Giemsa‐stained blood smears. Parasitemia values were averages of 3 mice per group.

The target of data set [17] is T1, PfATP4 (membranes prepared from 3D7 parasites) (Plasmodium falciparum, UniProt A0A143ZZK9).
T1 construct: The membranes were prepared from isolated trophozoite‐stage 3D7 parasites; endogenous in cells; host or cells: P. falciparum 3D7 trophozoites (membrane preparation)
T1 sequence (A0A143ZZK9 whole entry): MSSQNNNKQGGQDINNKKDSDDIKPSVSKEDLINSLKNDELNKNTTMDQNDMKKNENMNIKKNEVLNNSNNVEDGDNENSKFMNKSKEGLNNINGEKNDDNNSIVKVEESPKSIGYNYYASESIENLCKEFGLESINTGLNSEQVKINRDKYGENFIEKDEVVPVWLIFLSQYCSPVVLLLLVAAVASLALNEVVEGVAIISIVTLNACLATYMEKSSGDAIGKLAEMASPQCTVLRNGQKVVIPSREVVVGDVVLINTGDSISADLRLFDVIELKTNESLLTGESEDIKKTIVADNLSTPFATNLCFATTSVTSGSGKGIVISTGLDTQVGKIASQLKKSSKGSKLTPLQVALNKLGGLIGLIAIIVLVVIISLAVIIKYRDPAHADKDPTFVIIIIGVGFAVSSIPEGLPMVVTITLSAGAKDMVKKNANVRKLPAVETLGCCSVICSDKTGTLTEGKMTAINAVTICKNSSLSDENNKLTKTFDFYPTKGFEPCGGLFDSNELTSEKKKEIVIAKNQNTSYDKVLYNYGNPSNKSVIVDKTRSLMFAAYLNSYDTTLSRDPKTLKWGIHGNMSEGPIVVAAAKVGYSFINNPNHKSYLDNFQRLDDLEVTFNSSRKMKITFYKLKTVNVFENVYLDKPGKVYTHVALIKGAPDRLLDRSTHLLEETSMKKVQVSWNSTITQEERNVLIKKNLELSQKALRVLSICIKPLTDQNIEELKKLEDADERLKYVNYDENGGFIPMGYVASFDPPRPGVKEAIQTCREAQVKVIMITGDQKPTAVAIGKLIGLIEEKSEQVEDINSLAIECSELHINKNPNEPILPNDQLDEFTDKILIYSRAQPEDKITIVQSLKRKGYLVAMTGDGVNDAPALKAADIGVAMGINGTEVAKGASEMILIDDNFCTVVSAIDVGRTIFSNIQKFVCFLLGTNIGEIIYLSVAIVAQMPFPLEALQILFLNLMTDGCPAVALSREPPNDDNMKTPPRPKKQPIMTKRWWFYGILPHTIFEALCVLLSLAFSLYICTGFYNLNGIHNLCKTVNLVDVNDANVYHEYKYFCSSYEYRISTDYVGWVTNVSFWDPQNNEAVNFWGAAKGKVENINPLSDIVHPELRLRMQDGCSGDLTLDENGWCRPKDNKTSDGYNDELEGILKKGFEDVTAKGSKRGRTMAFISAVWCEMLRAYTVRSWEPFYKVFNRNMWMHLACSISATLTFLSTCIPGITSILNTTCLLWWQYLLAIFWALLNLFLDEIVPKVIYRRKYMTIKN
Briefly: PfATP4 Na+ assay (membrane ATPase), 3D7 membranes. To be noted: 50 nM; any of the conditions tested; negative control. It is filed as biochemical, P. falciparum. As for the experimental part:
Figure 4 Dihydroquinazolinone analogs 14 and 36 (WJM062) inhibit Na^+‐ATPase activity in membranes prepared from isolated P. falciparum parasites, consistent with them being PfATP4 inhibitors. (A) The effects of dihydroquinazolinone compounds (2 μM), dihydroartemisinin (DHA; 50 nM; negative control) and 0.2 % v/v DMSO (solvent‐only control) on membrane ATPase activity under high‐[Na^+] conditions (152 mM Na^+) and low‐[Na^+] conditions (2 mM Na^+; stemming from the addition of 1 mM Na2ATP) in the presence and absence of the PfATP4 inhibitor cipargamin (50 nM). The membranes were prepared from isolated trophozoite‐stage 3D7 parasites. The Pi produced is expressed as a percentage of that measured in the 152 mM Na^+ Control. The data are from four independent experiments performed with different membrane preparations; the symbols show the data from individual experiments and the bars show the mean (+SEM). In individual experiments, the Pi produced in the 152 mM Na^+ Control varied from 66 to 96 nmol per mg (total) protein per min. A repeated measures ANOVA with a post hoc Tukey test was used to compare the (pre‐normalised) data for different compounds and conditions. For comparisons between different conditions for the same test compound (or for the Control), significant differences are shown with black asterisks. For comparisons between the Control and a compound under the same test condition, significant differences are shown with coloured asterisks (in this case, grey asterisks, as the only significant differences were between the control and the dihydroquinazolinone compounds in the 152 mM Na^+ condition). ***P<0.001. (B) Concentration‐dependence of the effects of dihydroquinazolinone compounds on PfATP4‐associated ATPase activity in membranes prepared from 3D7 parasites. The data are the mean (shown + or − SEM) obtained from four independent experiments performed with different membrane preparations, with the exception of the lowest and second‐lowest concentrations of the compounds, for which data are from two and three independent experiments, respectively. (C and D) Potency of dihydroquinazolinone compounds against PfATP4‐associated ATPase activity in membranes prepared from Dd2‐Polδ‐PfATP4^G358S parasites (open triangles) and their Dd2‐Polδ parents (closed triangles). The data are the mean (shown + or − SEM) from four (C) or three (D) independent experiments. In B−D, the Pi production measured in the low‐[Na^+] (2 mM) condition was subtracted from that measured in high‐[Na^+] (152 mM) in the presence of each of the different concentrations of dihydroquinazolinone compounds to calculate the PfATP4‐associated ATPase activity. The PfATP4‐associated ATPase activity is expressed as a percentage of that obtained for the high‐[Na^+] (152 mM) Control.
Membrane ATPase assays were performed using a PiColorLock Gold Phosphate Detection System (Innova Biosciences), essentially as described previously.[25] Membranes were prepared either from isolated 3D7 trophozoites or from isolated Dd2‐Polδ‐PfATP4^G358S [22] and Dd2‐Polδ trophozoites.[26]

Where two headings read alike, the source gives them in different places. Some results are limits rather than exact numbers.

By EC50 is commonly meant the concentration giving half of the maximal effect. Broadly, the CC50 is the concentration that lowers cell viability or growth by half. For `CN1C(=O)c2ccc(Cl)cc2NC1(C)C(=O)Nc1cccc(Cl)c1` (centres unmarked) [Compound 11, 7‐Chloro‐N‐(3‐chlorophenyl)‐2,3‐dimethyl‐4‐oxo‐1,2,3,4‐tetrahydroquinazoline‐2‐carboxamide], the EC50 in data set [1] was 18 nM; in [2], 41 nM; in data set [3], 21 nM; in data set [4], 40 nM; with P. falciparum Dd2, 17 nM; in [5] it was 14 nM. The EC50 was found to be 13 nM in the data set with P. falciparum CAM3.1; 36 nM in [6]; 44 nM in data set [7]; 33 nM with P. falciparum 7G8; 140 nM in [9]; 9 nM in the data set with P. falciparum W2^mef. Further, in data set [10], the EC50 came out at 65 nM. Moreover, the CC50 at 48 h in data set [8] is over 40000 nM.
Take `C[C@H]1Cc2c([nH]c3cc(Cl)c(F)cc23)[C@@]2(N1)C(=O)Nc1ccc(Cl)cc12` [KAE609, reference compound]: the half-maximal effective concentration (EC50) in data set [2] was 4 nM; in [4] it was 3 nM; in data set [6], 2 nM; in data set [11], 9 nM.
Consider `CN1C(=O)c2c(F)cc(-c3cnn(C)c3)cc2N2C(=O)CCC12C(=O)Nc1cncc(Cl)c1` (centres unmarked) [S-WJM992 (5)], for which the half-maximal effective concentration (EC50) in [12] was 8 nM. Moreover, the effect on parasitemia result in data set [13] is “cleared parasitemia”. For the same molecule, the “Rat hepatocytes CLint” value in [14] is on record as 14 μL/min/10^6 cells.
For the molecule `N#Cc1cc(NC(=O)[C@H]2c3ccccc3C(=O)N(CC(F)(F)F)[C@@H]2c2cccnc2)ccc1F` [SJ733, reference compound], the EC50 in [15] is over 11000 nM; in data set [2], 135 nM; in data set [4] it was 129 nM; in data set [16], 68 nM; in data set [6], 80 nM.
With `C[C@H]1[C@H](OC(=O)CCC(=O)O)O[C@@H]2O[C@@]3(C)CC[C@H]4[C@H](C)CC[C@@H]1[C@@]24OO3` [artesunate, reference compound], the “% parasitemia” value in the data set with P. berghei ANKA (day 4) is 0.66%. In addition, in the data set on P. berghei ANKA (day 4, versus control), the “% reduction in parasitemia” value was determined as 96%.
Take `C[C@H]1[C@@H](O)O[C@@H]2O[C@@]3(C)CC[C@H]4[C@H](C)CC[C@@H]1[C@@]24OO3` [dihydroartemisinin, reference compound]: in [17], the “effect on membrane ATPase activity” value is listed as “no effect”.
